The text below walks through data of patent US20240245677A1, “SELECTED COMPOUNDS FOR TARGETED DEGRADATION OF BRD9” (C4 THERAPEUTICS, INC., priority 2021, published 2024).

The structures appear in SMILES notation.

In data set [1] the test system is cryopreserved hepatocytes from Sprague-Dawley rats. The data set can be described thus: Rat Hepatocyte Stability Assay. Type of data set: in vitro ADME. The protocol: (§1) The metabolic stability of Compound 1 was evaluated using cryopreserved hepatocytes from mice, rats, dogs, cynomolgus monkeys, and humans.
(§2) 50 μL of 1 mM intermediate solutions for each test compound was prepared by adding 5 μL of 10 mM stock solution to 45 μL of a 1:1 mixture of water and acetonitrile. A 2 μM working stocks for each test compound were prepared in incubation media, InvitroGRO™ KHB (Bio IVT, Westbury, NY, USA), by adding 2 μL of 1 mM intermediate stock to 998 μL of incubation media.
(§3) To thaw the hepatocytes, InvitroGRO™ HT thawing medium (BioIVT, Westbury, NY, USA) was prewarmed to 37° C., and 48 mL of warmed thawing medium was transferred to a sterile 50 mL conical tube. The hepatocyte vial was removed from the liquid nitrogen Dewar, and gently thawed in a water bath at 37° C. for 1-2 minutes, then the contents of the vial were emptied into a conical tube with prewarmed InvitroGRO HT medium. 1 mL of prewarmed InvitroGRO HT medium was added to each emptied hepatocyte vial to resuspend any remaining cells, and the contents were pipetted into the hepatocyte suspension. The tube containing the hepatocyte suspension was centrifuged at 50*g for 5 minutes. The supernatant was removed carefully, and the remaining pellet was resuspended by adding 1 mL of incubation media, InvitroGRO KHB, and gently shaking until there were no clumps.
(§4) Cell viability was determined using the trypan blue method. 25 μL of hepatocyte cell suspension was added to a trypan blue (TB) solution (containing 775 μL InvitroGRO KHB and 200 μL of Trypan Blue). Cell count was taken using a hemacytometer.
(§5) For mouse hepatocytes, 200 μL of hepatocytes (0.8×10^6 cells/mL) were added to the wells of a 48 well plate (Catalog No. 92048, TPP Techno Plastic Products AG, Trasadingen, Switzerland) and pre-incubated for 30 minutes at 37° C. For rat, dog, monkey, […], 200 μL of hepatocytes (2×10^6 cells/mL) were added to the wells of a 48 well plate (Catalog No. 92048, TPP Techno Plastic Products AG, Trasadingen, Switzerland) and pre-incubated for 30 minutes at 37° C.
(§6) For all species of hepatocytes, once the pre-incubation period was complete, 200 μL of 2 μM working stock of test compound was added to the wells of the plate, and the plate was vortexed on a Vibramax™ 100 (P/N 544-21200-00, Heidolph Instruments GmbH & Co. KG, Schwabach, Germany) at 500 rpm in a 37° C. CO2 incubator (Model No. 51026280, ThermoFisher Scientific, Waltham, MA, USA). At each time point of 0, 15, 30, 60, 90, and 120 minutes, 50 μL of incubation mixture was precipitated with 200 μL of acetonitrile containing internal standard.
(§7) At the end of the experiment, the samples were centrifuged at 4000 rpm for 10 minutes. […]

Data set [2] in a line: Rat Hepatocyte Stability Assay. Conditions: Sprague-Dawley, cryopreserved hepatocytes. The class given is in vitro ADME. The protocol:
as §1, §2, §3, §4, §5, §6, §7

The nature of data set [3]: Monkey Hepatocyte Stability Assay. The class given is in vitro ADME, cynomolgus monkey. The following applies: cryopreserved hepatocytes. The protocol:
as §1, §2, §3, §4, §5, §6, §7

The test system of data set [4] is cryopreserved hepatocytes from cynomolgus monkeys. The data set can be described thus: Monkey Hepatocyte Stability Assay. The class given is in vitro ADME, cynomolgus monkey. The protocol:
as §1, §2, §3, §4, §5, §6, §7

A short description of data set [5]: Mouse Hepatocyte Stability Assay. The class given is in vitro ADME. The following applies: CD-1, cryopreserved hepatocytes. The protocol: as §1, §2, §3, §4, §5, §6
(§8) At the end of the experiment, the samples were centrifuged at 4000 rpm for 10 minutes. The supernatant was collected and diluted with an equal amount of water, and vortexed for 5 minutes at 900 rpm in MixMate® (Model No. 5353, Eppendorf SE, Hamburg, Germany).
(§9) The supernatant samples were submitted for LC-MS/MS analysis.
(§10) Calculations of the results included the following: […]

Data set [6] deals with cryopreserved hepatocytes from CD-1 mice. Nature of the data set: Mouse Hepatocyte Stability Assay. The class given is in vitro ADME. The protocol: as §1, §2, §3, §4, §5, §6, §8, §9, §10

On to `COc1cc(-c2cn(C)c(=O)c(C)c2C)cc(OC)c1CN1CC[C@H](N2CCN(c3ccc(N[C@H]4CCC(=O)NC4=O)cc3F)CC2)C(F)(F)C1` [Compound 1, (S)-3-((4-(4-((S)-1-(2,6-dimethoxy-4-(1,4,5-trimethyl-6-oxo-1,6-dihydropyridin-3-yl)benzyl)-3,3-difluoropiperidin-4-yl)piperazin-1-yl)-3-fluorophenyl)amino)-piperidine-2,6-dione], for which the entries for the “CLh int in vivo” value in data set [1] and in data set [6] were 17.76 mL/min/Kg body wt and 44.94 mL/min/Kg body wt, respectively. The “CLhb scaled well stirred” value was determined as 14.2 mL/min/kg body wt in data set [1], 24.7 mL/min/kg body wt in data set [4] and 30.0 mL/min/kg body wt in data set [6]. The half-life at 1 µM is > 2 h in data set [2], 0.736 h in data set [3] and > 2 h in data set [5]. Besides, the hepatocyte CLint at 1 µM in data set [2] (read-out: CL int cells) worked out at 3.7 µL/min/1e6 cells; in data set [3] (read-out: CL int cells) it was 15.7 µL/min/1e6 cells; in data set [5] (read-out: CL int cells) it was 4.26 µL/min/1e6 cells. Further, the CLint scaled at 1 µM in data set [3] (read-out: CL int in vivo) was 56.5 mL/min/kg.

As usually defined, the half-life is how long it takes for the measured level to halve.
